Results from patent US7326679B2, “Anticancer peptide compositions” (TranXenoGen, Inc., priority 2003, dated 2008).
Entries after “also recorded” stand apart in the source; their conditions may differ. Square brackets hold non-standard residues; d marks the D form. Ends that are not written are not given here. pGlu = O=C1CC[C@@H](C(=O)O)N1

Tests used:
[1] = system: OSRC human osteogenic sarcoma tumor; assay: Osteosarcoma (OSRC) tumor model in nude mice; assay type: in vivo, Nude nu/nu mice; details: SQ treatments on days 8, 11, 14 and 17; n=4
Protocol: Tumor cell culture and harvesting was carried out as follows. Human osteogenic sarcoma cancer cells (OSRC cell line) was grown in DMEM containing additional non-essential amino acids and vitamins and 10% heat inactivated fetal bovine serum (Invitrogen™, Carlsbad, Calif.). Cells in log phase were harvested from flasks using trypsin-EDTA (0.05% trypsin/0.53 mM Na-EDTA; Invitrogen™), washed in PBS and resuspended in DMEM for counting and viability assessment using trypan blue exclusion. Cells were resuspended at 2.5×10^7 cells per ml in PBS for injection into the mice.
Nude nu/nu mice (4 to 5 week-old females, Charles River Labs, Wilmington, Mass.) were acclimated for 1 week before injection with 2.5 million OSRC cells subcutaneously (SQ) in a total volume of 100 μl. After 8 days of tumor development, the mice were injected SQ with each peptide or the protein pool prepared in phosphate buffered saline (PBS) containing 0.05% sodium dodecyl sulfate (SDS) or PBS+0.05% SDS alone (Control). All doses were 200 μl in volume, with additional treatments on days 11, 14 and 17 post-transplantation. Treatments were alternated between flanks of the mice. Tumor size (length, width and height) and mouse weights were measured three times per week. The results (FIGS. 6A-B) represent the average of the 4 mice in each group. […]

[2] = system: bFGF induced angiogenesis; assay: Chicken chorioallantoic membrane (CAM) assay; assay type: in vivo, White Leghorn chick embryos; details: for inhibition of bFGF-induced angiogenesis: day-10 chick embryos; for anti-angiogenic activity in CAM assay (overall): increasing doses, 100 ng or 200 ng bFGF, 48 hours at 37° C.
Text: The chicken chorioallantoic membrane (CAM) assay was completed to assess the effect of the peptides on basic fibroblast growth factor (bFGF) induced angiogenesis. Small windows were created through the blunt end of the shell directly over the air sac of 9-10 day old White Leghorn chick embryos with the use of a small crafts Dremel drill. The air sac was peeled-off, and filter disks saturated with basic fibroblast growth factor (bFGF) and the test peptide (or buffer control) were placed adjacent to each other on the CAM of the chick embryo. The shell windows were sealed with parafilm and eggs were incubated at 37° C. in a humidified egg incubator. After 48-72 hours, the CAM tissue directly below the filter disks was resected. Tissues were washed three times with PBS and analyzed using a stereomicroscope. The number of branching blood vessels infiltrating under the filter disks were determined and documented.

[3] = system: CAM tissue cells; assay: Detection of cell death in resected CAM tissues (H-33342 and propidium iodide staining); assay type: in vivo, chick embryos; details: for apoptosis / DNA fragmentation (H-33342 staining): 100 ng bFGF plus 200 ng peptide
Protocol: Following staining, the tissues were washed three times in PBS and fixed in 4% formalin. The tissues were visualized under epifluorescence using a photo-digital imaging system. The number of live, apoptotic and necrotic cells were determined.

[4] = system: neo-vascularization of early chick embryo; assay: Chick embryo neo-vascularization inhibition assay; assay type: in vivo, White Leghorn chick embryos; details: day-3.5 chick embryo, filter disks
Text: This assay was completed to determine the impact of Pep A and Pep B on neo-vascularization of early chick embryo. Small windows were created through the blunt end of the shell directly over the air sac of 3.5-day old White Leghorn chick embryos with the use of a small crafts Dremel drill. The air sac was peeled-off and filter disks with different concentrations of the test peptide or buffer control were placed over a section of the developing blood ring and overlapping connecting vessels of the chick embryo. The shell windows were sealed with parafilm and eggs were incubated at 37° C. in a humidified egg incubator. After 48-72 hours, the yolk membrane tissue directly below the filter disks was resected. Tissues were washed three times with PBS and analyzed for inhibition of neo-vascularization using a stereomicroscope with photo-digital attachment.

[5] = system: HeLa tumor; assay: In vivo nude mice experiment, HeLa tumor growth; parameters: species or system Nude nu/nu mice; details: for inhibition of HeLa tumor growth during treatment phase (average tumor volume): n=3; for tumor growth profile post treatment: after fourth treatment until day 24, Pep A 500 and 750 μg, Pep B 500 μg; for response of individual tumors to treatment: tumor volumes on day 14, one day post last treatment; for vascularization and infiltration of isolated tumors (histopathology): compared to control mice
Protocol: The HeLa human cervical cancer cell line (ATCC, Manassas Va.; CCL-2) was grown according to direction in DMEM containing 10% fetal bovine serum. Cells in log phase were harvested from flasks using trypsin-EDTA (0.25% trypsin/1 mM Na-EDTA; Invitrogen), washed in PBS and resuspended in DMEM for counting and viability assessment using trypan blue exclusion. […] Cells were resuspended at 5×10^7 cells/mL in PBS for injection into the mice.
Nude nu/nu mice (4 to 5 week-old females) were acclimated for 1 week and injected with 5 million HeLa cells subcutaneously (SQ) in a total volume of 100 μL. After 3 days of tumor development, the mice were injected SQ with each peptide prepared in phosphate buffered saline (PBS) containing 0.05% sodium dodecyl sulfate (SDS) or PBS+0.05% SDS alone. All doses were 200 μL in volume, with additional treatments on days 6, 10 and 13 post-transplantation. Treatments were alternated between flanks of the mice. Tumor size and mouse weights were measured three times per week. The results represent the average of the 3 mice in each group. The experiment was terminated on day 24 and the tumors were excised for weight and histopathology.
HeLa cells (5×10^6 cells in 100 μL were administered subcutaneously (SQ). The cells were implanted in the left mid-flank region of 5 week old immunodeficient Nude nu/nu female mice (Charles River Labs, Wilmington, Mass.) and allowed to develop to palpable size (average diameter=[…]; average volume=24 mm^3). Mice were randomized and divided into experimental groups, with 3 mice per group. The mice were treated with SQ injections (200 μL) of various doses of peptide in phosphate buffered saline (PBS) containing a detergent, e.g., 0.05% sodium dodecyl sulphate (SDS). Control mice were injected with PBS containing 0.05% SDS alone. […] The treatments were administered on days 3, 6, 10 and 13 post-transplantation. Tumors were measured three times per week until the experiment was terminated on day 24 post-transplantation.

[6] = 200 ng peptide with 100 ng bFGF
[7] = 500 μg per dose SQ on days 3, 6, 10 and 13

Row | Substance | osteosarcoma tumor volume (tumor burden) [1] | suppression of bFGF-induced angiogenesis ([2]; 200 ng of bFGF) | inhibition of bFGF-induced angiogenesis [2, 6] | inhibition of bFGF-induced angiogenesis ([2]; Pep A with 100 ng bFGF) | anti-angiogenic activity in CAM assay (overall) [2] | apoptosis / DNA fragmentation (H-33342 staining) [3] | apoptosis / DNA fragmentation (H-33342 staining) ([3]; listed as PepA) | suppression of neo-vascularization / branching vessel formation [4] | inhibition of HeLa tumor growth during treatment phase (average tumor volume) [5, 7] | inhibition of HeLa tumor growth during treatment phase (average tumor volume) ([5]; 750 μg per dose SQ on days 3, 6, 10 and 13) | tumor growth profile post treatment [5] | response of individual tumors to treatment [5] | areas of cell death in isolated tumors (histopathology) ([5]; tumors isolated upon sacrifice) | vascularization and infiltration of isolated tumors (histopathology) ([5]; tumors isolated upon sacrifice) | condensation of the cell nuclei ([3]; compared to controls)
1 | ELKCYTCKEPMTSASCRTIT [Pep A] | reduction of osteosarcoma tumor volume | showed suppression | comparatively better inhibition of blood vessel infiltration | inhibition of neo-vascularization and infiltration as well as degradation of pre-existing vessels | inhibited angiogenesis; also recorded: more potent anti-angiogenic agent | Intensely staining apoptotic nuclei (white) of vascular cells; also recorded: significant increase in DNA fragmentation | induces cell death by apoptosis | dose dependent suppression of branching vessel formation | tumor inhibition during the treatment phase | tumor inhibition during the treatment phase | slight increase in tumor burden; also recorded: only limited tumor growth for the duration of the experiment | response of all animals | larger areas of cell death; also recorded: noticeably larger | significantly less vascularization and infiltration | 
2 | 6 mer: residues 5-10 of SEQ ID NO:1 (YTCKEP) | reduction of osteosarcoma tumor volume |  |  |  |  |  |  |  |  |  |  |  |  |  | 
3 | pyroELKCYTCKEPMTSASCRTIT ([pGlu]LKCYTCKEPMTSASCRTIT; cysteine pairing not given here) [Pep B] |  |  | inhibition of bFGF-induced angiogenesis |  | inhibited angiogenesis | did not demonstrate the peri-vascular apoptosis; also recorded: minimal increase in apoptosis over the control |  | dose dependent suppression of branching vessel formation | tumor inhibition during the treatment phase |  | escalation of tumor burden; also recorded: lost shortly after treatment stopped | response of all animals |  | significantly less vascularization and infiltration | observable condensation of the cell nuclei
